Reference: patent US8053435B2, “Naphthalenyloxypropenyl derivatives having inhibitory activity against histone deacetylase and pharmaceutical composition comprising the same” (Korea Research Institute of Chemical Technology, priority 2006, dated 2011)
Read-outs that look alike come from different tables or passages of the source.

What was measured:
[1] = tested on: HDAC; assay: Inhibitory activity against HDAC (BIOMOL Quantizyme Assay system, Fluor de Lys substrate); assay type: biochemical; settings: HeLa nuclear extract as source of HDAC enzymes, enzyme reaction 1 hr, read-out: IC50 (HDAC inhibitory concentration)
Description: HDAC activity was analyzed using BIOMOL Quantizyme™ Assay system which comprised two steps of 1) enzyme reaction between HDAC and a substrate and 2) determination of the level of HDAC inhibitory activity.
(§1) 0.5 μl of HeLa nuclear organic layer (10 μM) (a source of HDAC enzymes) was then added thereto to a final concentration of 100 nM. The enzyme reaction was carried out for 1 hr.
Subsequently, in step 2), 2 μM tricostatin A was added to 50 μl of Flour de Lys™ developer, followed by allowing the mixture to react at room temperature for 15 minutes. The light excited at 355 nm and emitted at 460 nm from the fluorophore was measured with a fluorometric plate reader. The intensity of the fluorescence increases as the enzyme activity is higher. The HDAC inhibitory activity of each of the test compounds was determined and compared with that of the control.
0.5 μl of HeLa nuclear organic layer (10 μM) (a source of HDAC enzymes) was then added thereto to a final concentration of 100 nM, The enzyme reaction was carried out for 1 hr.
as §1, §1

[2] = tested on: colon cancer cells HCT116; assay: Inhibitory activity against proliferation of cancer cells, SRB (Sulforhodamine B) analysis; assay type: cell-based; settings: Homo sapiens, read-out: Inhibitory conc. against cancer cell growth (EC50 μM) HCT116
Description: Cancer cells were inoculated into a 96-well microplate at a concentration of 1×10^3˜3×10^3 cells/well and incubated under the condition of 37° C., 5% CO2 for 24 hrs. After the incubation was completed, 0.2, 1, 5, 25, or 100 μM of each of the compounds of Examples was added to the plate, and then the reactant was incubated for 48 hrs. After the substrate was stained with SRB, the anti-cancer activity was determined by comparing the amount of protein in the cells treated with the compound of Examples with that of protein in untreated cells.
Specifically, after the incubation was completed, the culture medium was removed from each well, and the cells were washed 3 times with PBS (pH 7.4). Then, a solution of 50% trichloroacetic acid (TCA) was added to each well in an amount of 50 μl/well at 4° C. for 1 hr to fix them. Then, the microplate was washed 5 times with distilled water and dried in air. […]
50 μl of a staining solution prepared by dissolving 0.4% SRB in 1% acetic acid was added to the wells, and the microplate was kept at room temperature for 1 hr. The well plate was then washed 5 times with 1% acetic acid to remove unbound SRB and dried in air. The stained cells were treated with 150 μl/well of 10 mM Tris-HCl solution (pH 10.5) to elute SRB from the cells, and the absorbance of the cells treated with the compounds of examples at 540 nm was measured, based on the absorbance of an untreated cell. The EC50 value representing inhibition of the cancer cell growth by the extent of 50% was calculated from the measured absorbance, and the results are shown in Table 6.

[3] = HCT-116, Table 2, 48 hrs incubation with compound
[4] = HCT-116, Table 4, 48 hrs incubation with compound

IC50 ([1]; Table 1, formula (1) series) [nM] | EC50 [2, 3] [µM] | IC50 ([1]; Table 3, formula (2) series) [nM] | EC50 [2, 4] [µM] | Compound
– | – | 5 | 0.8 | COc1ccc(CNC(=O)/C(=C/CCCCC(=O)NO)COc2cccc3ccccc23)cc1 [Example 2-6, (E)-N8-Hydroxy-N1-(4-methoxybenzyl)-2-((naphthalen-1-yloxy)methyl)-2-octenediamide]
– | – | 14 | 0.7 | O=C(CCCCC=C(COc1cccc2ccccc12)C(=O)NCC1CCCO1)NO (stereo not drawn) [Example 2-8, (E)-N8-Hydroxy-2-((naphthalen-1-yloxy)methyl)-N1-(tetrahydrofuran-2-yl)methyl)-2-octenediamide]
– | – | 6 | 0.6 | O=C(CCCC/C=C(\COc1cccc2ccccc12)C(=O)NCc1ccco1)NO [Example 2-11, (E)-N1-(Furan-2-ylmethyl)-N8-hydroxy-2-((naphthalen-1-yloxy)methyl)-2-octenediamide]
– | – | 6 | 0.5 | CN(C)c1ccc(CNC(=O)/C(=C/CCCCC(=O)NO)COc2cccc3ccccc23)cc1 [Example 2-12, (E)-N1-(4-(Dimethylamino)benzyl)-N8-hydroxy-2-((naphthalen-1-yloxy)methyl)-2-octenediamide]
– | – | 24 | 0.6 | COCCNC(=O)/C(=C/CCCCC(=O)NO)COc1cccc2ccccc12 [Example 2-13, (E)-N8-Hydroxy-N1-(2-methoxyethyl)-2-((naphthalen-1-yloxy)methyl)-2-octenediamide]
– | – | – | 0.8 | O=C(CCCC/C=C(\COc1cccc2ccccc12)C(=O)NC1CCCCC1)NO [Example 2-14, (E)-N1-Cyclohexyl-N8-hydroxy-2-((naphthalen-1-yloxy)methyl)-2-octenediamide]
– | – | 8 | 0.4 | O=C(CCCC/C=C(\COc1cccc2ccccc12)C(=O)NCc1cccs1)NO [Example 2-15, (E)-N8-Hydroxy-2-((naphthalen-1-yloxy)methyl)-N1-(thiophen-2-ylmethyl)-2-octenediamide]
– | – | 17 | 0.7 | COc1ccc(CCNC(=O)/C(=C/CCCCC(=O)NO)COc2cccc3ccccc23)cc1 [Example 2-16, (E)-N8-Hydroxy-N1-(4-methoxyphenethyl)-2-((naphthalen-1-yloxy)methyl)-2-octenediamide]
– | – | 13 | 0.8 | O=C(CCCC/C=C(\COc1cccc2ccccc12)C(=O)NC1CCN(C2CCCC2)CC1)NO [Example 2-19, (E)-N1-(1-Cyclopentylpiperidin-4-yl)-N8-hydroxy-2-((naphthalen-1-yloxy)methyl)-2-octenediamide]
– | – | 7 | 0.9 | O=C(CCCC/C=C(\COc1cccc2ccccc12)C(=O)NC1CCN(Cc2ccccc2)C1)NO (stereo not drawn) [Example 2-20, (E)-N1-(1-Benzylpyrrolidin-3-yl)-N8-hydroxy-2-((naphthalen-1-yloxy)methyl)-2-octenediamide]
– | – | 12 | 1 | CC(C)N1CCC(NC(=O)/C(=C/CCCCC(=O)NO)COc2cccc3ccccc23)C1 (stereo not drawn) [Example 2-21, (E)-N8-Hydroxy-N1-(1-isopropylpyrrolidin-3-yl)-2-((naphthalen-1-yloxy)methyl)-2-octenediamide]
– | – | 10 | 0.5 | O=C(CCCC/C=C(\COc1ccc2ccccc2c1)C(=O)NC1CCN(C2CCCCC2)C1)NO (stereo not drawn) [Example 2-25, (E)-N1-(1-Cyclohexylpyrrolidin-3-yl)-N8-hydroxy-2-((naphthalen-2-yloxy)methyl)-2-octenediamide]
– | – | 11 | < 0.2 | O=C(CCCC/C=C(\COc1cccc2ccccc12)C(=O)NC1CCN(C2CC2)C1)NO (stereo not drawn) [Example 2-26, (E)-N1-(1-Cyclopropylpyrrolidin-3-yl)-N8-hydroxy-2-((naphthalen-1-yloxy)methyl)-2-octenediamide]
– | – | 16 | 0.32 | O=C(CCCC/C=C(\COc1cccc2ccccc12)C(=O)NC1CCN(C2CC2)CC1)NO [Example 2-27, (E)-N1-(1-Cyclopropylpiperidin-4-yl)-N8-hydroxy-2-((naphthalen-1-yloxy)methyl)-2-octenediamide]
– | – | 10 | 0.9 | CCN1CCC(NC(=O)/C(=C/CCCCC(=O)NO)COc2cccc3ccccc23)C1 (stereo not drawn) [Example 2-29, (E)-N1-(1-Ethylpyrrolidin-3-yl)-N8-hydroxy-2-((naphthalen-1-yloxy)methyl)-2-octenediamide]
– | – | 15 | 0.7 | CC(C)N1CCC(NC(=O)/C(=C/CCCCC(=O)NO)COc2cccc3ccccc23)CC1 [Example 2-30, (E)-N8-Hydroxy-N1-(1-isopropylpiperidin-4-yl)-2-((naphthalen-1-yloxy)methyl)-2-octenediamide]
– | – | 9 | – | (E)-N1-(2-(Diisopropylamino)ethyl)-N8-hydroxy-2-((naphthalen-1-yloxy)methyl)octenediamide [Example 2-4]
– | – | 21 | – | (E)-N1-(3-(Dimethylamino)-2,2-dimethylpropyl)-N8-hydroxy-2-((naphthalen-1-yloxy)methyl)octenediamide [Example 2-3]

Further lines, the compound ahead of its results:

Compound | IC50 ([1]; Table 1, formula (1) series) [nM] | EC50 [2, 3] [µM] | IC50 ([1]; Table 3, formula (2) series) [nM] | EC50 [2, 4] [µM]
CN1CCC(NC(=O)/C(=C/c2ccc(C(=O)NO)cc2)COc2cccc3ccccc23)CC1 [Example 1-1, (E)-4-(3-(1-Methylpiperidin-4-ylamino)-2-((naphthalen-1-yloxy)methyl)-3-oxoprop-1-enyl)-N-hydroxybenzamide] | 6 | 0.54 | – | –
CN(C)CC(C)(C)CNC(=O)/C(=C/c1ccc(C(=O)NO)cc1)COc1cccc2ccccc12 [Example 1-4] | 14 | 0.5 | – | –
COCC(C)NC(=O)/C(=C/c1ccc(C(=O)NO)cc1)COc1cccc2ccccc12 (stereo not drawn) [Example 1-6, (E)-4-(3-(1-Methoxypropan-2-ylamino)-2-((naphthalen-1-yloxy)methyl)-3-oxoprop-1-enyl)-N-hydroxybenzamide] | 23 | 0.63 | – | –
COc1ccc(CNC(=O)/C(=C/c2ccc(C(=O)NO)cc2)COc2cccc3ccccc23)cc1 [Example 1-7, (E)-4-(3-(4-Methoxybenzylamino)-2-((naphthalen-1-yloxy)methyl)-3-oxoprop-1-enyl)-N-hydroxybenzamide] | 10 | 0.7 | – | –
O=C(NCc1ccco1)/C(=C/c1ccc(C(=O)NO)cc1)COc1cccc2ccccc12 [Example 1-12, (E)-4-(3-(Furan-2-ylmethylamino)-2-((naphthalen-1-yloxy)methyl)-3-oxoprop-1-enyl)-N-hydroxybenzamide] | 7 | 0.6 | – | –
CN(C)c1ccc(CNC(=O)/C(=C/c2ccc(C(=O)NO)cc2)COc2cccc3ccccc23)cc1 [Example 1-13, (E)-4-(3-(4-(Dimethylamino)benzylamino)-2-((naphthalen-1-yloxy)methyl)-3-oxoprop-1-enyl)-N-hydroxybenzamide] | 20 | 0.8 | – | –
CCN1CCC(NC(=O)/C(=C/c2ccc(C(=O)NO)cc2)COc2cccc3ccccc23)CC1 [Example 1-17, (E)-4-(3-(1-Ethylpiperidin-4-ylamino)-2-((naphthalen-1-yloxy)methyl)-3-oxoprop-1-enyl)-N-hydroxybenzamide] | 8 | 0.5 | – | –
CN1CCCC1CCNC(=O)/C(=C/c1ccc(C(=O)NO)cc1)COc1cccc2ccccc12 (stereo not drawn) [Example 1-22, (E)-4-(3-(2-(1-Methylpyrrolidin-2-yl)ethylamino)-2-((naphthalen-1-yloxy)methyl)-3-oxo-1-propenyl)-N-hydroxy-benzamide] | 13 | 0.8 | – | –
CC(C)N1CCC(NC(=O)/C(=C/c2ccc(C(=O)NO)cc2)COc2cccc3ccccc23)CC1 [Example 1-23, (E)-4-(3-(1-Isopropylpiperidin-4-ylamino)-2-((naphthalen-1-yloxy)methyl)-3-oxoprop-1-enyl)-N-hydroxybenzamide] | – | 0.7 | – | –
(E)-(3-(3-(Pyrrolidin-1-yl)propylamino)-2-((naphthalen-1-yloxy)methyl)-3-oxoprop-1-enyl)-N-hydroxybenzamide [Example 1-20] | 6 | – | – | –
